According to ChEMBL document CHEMBL1201862, “PubChem BioAssay data set” (2004):
Activity calls are given as the source filed them.

How the values were obtained:
Assay type in all cases: functional
[1] = target: Serine/threonine-protein kinase TAO1 (Homo sapiens, UniProt Q7L7X3)
[2] = target: Serine/threonine-protein kinase PAK 1 (Homo sapiens, UniProt Q13153)
[3] = target: Calcium/calmodulin-dependent protein kinase type II subunit delta (Homo sapiens, UniProt Q13557)
[4] = target: Insulin-like growth factor 1 receptor (Homo sapiens, UniProt P08069); test: Navigating the Kinome. Panel member name: IGF1R
[5] = target: Mitogen-activated protein kinase 1 (Homo sapiens, UniProt P28482)
[6] = target: RAC-gamma serine/threonine-protein kinase (Homo sapiens, UniProt Q9Y243)
[7] = target: Serine/threonine-protein kinase pim-2 (Homo sapiens, UniProt Q9P1W9);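 further: value comes from a broad kinase panel profiling study in which PIM2 was one of the panel members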
[8] = target: Tyrosine-protein kinase ABL1 (Homo sapiens, UniProt P00519)
[9] = target: Protein kinase C gamma type (Homo sapiens, UniProt P05129)
[10] = target: Tyrosine-protein kinase Lck (Homo sapiens, UniProt P06239);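 further: lck was assayed as one member of a kinase panel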
[11] = target: Serine/threonine-protein kinase 17A (Homo sapiens, UniProt Q9UEE5)
[12] = target: Serine/threonine-protein kinase DCLK1 (Homo sapiens, UniProt O15075);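 further: affinity for DCLK1 (listed as DCAMKL1) measured as one member of a kinome-wide kinase profiling panel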
[13] = target: SRSF protein kinase 1 (Homo sapiens, UniProt Q96SB4);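 further: measured as one member of a kinome-wide kinase profiling panel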
[14] = target: 5'-AMP-activated protein kinase catalytic subunit alpha-1 (Homo sapiens, UniProt Q13131)
[15] = target: Fibroblast growth factor receptor 1 (Homo sapiens, UniProt P11362)
[16] = target: Proto-oncogene tyrosine-protein kinase ROS (Homo sapiens, UniProt P08922);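 further: ROS1 tested as one member of a kinome-wide kinase panel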
[17] = target: Receptor-type tyrosine-protein kinase FLT3 (Homo sapiens, UniProt P36888);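 further: FLT3 was tested as one member of a kinome-wide kinase panel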
[18] = target: Cyclin-dependent kinase 5 (Homo sapiens, UniProt Q00535);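 further: CDK5 measured as one member of a kinase profiling panel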
[19] = target: Fibroblast growth factor receptor 3 (Homo sapiens, UniProt P22607)
[20] = target: 3-phosphoinositide-dependent protein kinase 1 (Homo sapiens, UniProt O15530);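 further: value comes from the Navigating the Kinome panel, PDPK1 member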
[21] = target: Lymphokine-activated killer T-cell-originated protein kinase (Homo sapiens, UniProt Q96KB5);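 further: value comes from a kinase panel screen in which TOPK was one of the panel members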
[22] = target: Protein kinase C iota type (Homo sapiens, UniProt P41743);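 further: measured within a kinome-wide kinase panel, PRKCI as panel member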
[23] = target: Calcium/calmodulin-dependent protein kinase type 1 (Homo sapiens, UniProt Q14012)
[24] = target: MAP/microtubule affinity-regulating kinase 3 (Homo sapiens, UniProt P27448);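 further: MARK3 affinity measured as one member of a kinome panel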
[25] = target: Receptor tyrosine-protein kinase erbB-2 (Homo sapiens, UniProt P04626); test: Navigating the Kinome. Panel member name: ERBB2
[26] = target: Ribosomal protein S6 kinase alpha-3 (Homo sapiens, UniProt P51812);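 further: measured within a kinome-wide profiling panel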
[27] = target: Cell division cycle 7-related protein kinase (Homo sapiens, UniProt O00311);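 further: value obtained from a kinome-wide kinase panel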
[28] = target: Tyrosine-protein kinase Srms (Homo sapiens, UniProt Q9H3Y6);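 further: SRMS measured as one member of a kinome-wide kinase profiling panel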
[29] = target: Dual specificity tyrosine-phosphorylation-regulated kinase 4 (Homo sapiens, UniProt Q9NR20)
[30] = target: Serine/threonine-protein kinase PLK3 (Homo sapiens, UniProt Q9H4B4)
[31] = target: Aurora kinase B (Homo sapiens, UniProt Q96GD4)
[32] = target: Maternal embryonic leucine zipper kinase (Homo sapiens, UniProt Q14680)
[33] = target: cGMP-dependent protein kinase 1 (Homo sapiens, UniProt Q13976);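 further: value from a kinome panel screen with PRKG1 as the panel member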
[34] = target: Serine/threonine-protein kinase PLK4 (Homo sapiens, UniProt O00444);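 further: PLK4 measured as one member of a kinome-wide kinase profiling panel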
[35] = target: Serine/threonine-protein kinase 3 (Homo sapiens, UniProt Q13188);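 further: measured as one member of a kinome-wide kinase panel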
[36] = target: Serine/threonine-protein kinase pim-1 (Homo sapiens, UniProt P11309)
[37] = target: Serine/threonine-protein kinase D2 (Homo sapiens, UniProt Q9BZL6);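 further: measured against PRKD2 as one member of a kinome-wide kinase profiling panel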
[38] = target: Testis-specific serine/threonine-protein kinase 2 (Homo sapiens, UniProt Q96PF2);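 further: part of the Navigating the Kinome panel, target entry STK22B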
[39] = target: Serine/threonine-protein kinase D3 (Homo sapiens, UniProt O94806);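 further: determined within a kinase panel screen, with PRKCN as the panel member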
[40] = target: Mast/stem cell growth factor receptor Kit (Homo sapiens, UniProt P10721);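 further: KIT entry within a kinase panel assay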
[41] = target: BDNF/NT-3 growth factors receptor (Homo sapiens, UniProt Q16620);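 further: NTRK2 measured as one member of a broad kinome-wide kinase profiling panel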
[42] = target: Dual specificity tyrosine-phosphorylation-regulated kinase 1A (Homo sapiens, UniProt Q13627);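 further: measured against DYRK1A as one member of a broad kinome profiling panel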
[43] = target: Dual specificity tyrosine-phosphorylation-regulated kinase 3 (Homo sapiens, UniProt O43781);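 further: measured as one member of a broad kinase panel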
[44] = target: Cyclin-dependent kinase 7 (Homo sapiens, UniProt P50613);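 further: value comes from a kinome-wide kinase profiling panel in which CDK7 is one member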
[45] = target: Serine/threonine-protein kinase Nek4 (Homo sapiens, UniProt P51957)
[46] = target: Interleukin-1 receptor-associated kinase 4 (Homo sapiens, UniProt Q9NWZ3)
[47] = target: Tyrosine-protein kinase FRK (Homo sapiens, UniProt P42685);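 further: FRK tested as one member of a kinome panel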

Maternal embryonic leucine zipper kinase, sequence (Q14680 whole entry): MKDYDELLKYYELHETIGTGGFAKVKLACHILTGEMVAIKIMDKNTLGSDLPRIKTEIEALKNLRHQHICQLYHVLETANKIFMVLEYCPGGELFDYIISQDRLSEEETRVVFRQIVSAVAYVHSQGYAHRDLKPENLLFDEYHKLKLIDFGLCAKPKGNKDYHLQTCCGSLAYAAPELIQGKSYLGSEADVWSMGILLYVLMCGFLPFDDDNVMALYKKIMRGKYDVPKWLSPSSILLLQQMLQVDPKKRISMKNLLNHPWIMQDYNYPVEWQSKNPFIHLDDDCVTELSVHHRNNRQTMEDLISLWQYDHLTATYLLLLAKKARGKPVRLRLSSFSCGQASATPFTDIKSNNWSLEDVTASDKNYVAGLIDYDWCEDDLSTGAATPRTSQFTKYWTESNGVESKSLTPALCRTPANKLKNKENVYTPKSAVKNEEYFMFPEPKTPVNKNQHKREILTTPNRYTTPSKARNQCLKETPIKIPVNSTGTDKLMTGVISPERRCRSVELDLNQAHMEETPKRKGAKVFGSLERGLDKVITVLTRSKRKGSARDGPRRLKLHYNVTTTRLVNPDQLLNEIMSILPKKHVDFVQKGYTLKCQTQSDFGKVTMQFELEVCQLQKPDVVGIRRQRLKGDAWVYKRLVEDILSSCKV
MAP/microtubule affinity-regulating kinase 3, sequence (P27448 whole entry): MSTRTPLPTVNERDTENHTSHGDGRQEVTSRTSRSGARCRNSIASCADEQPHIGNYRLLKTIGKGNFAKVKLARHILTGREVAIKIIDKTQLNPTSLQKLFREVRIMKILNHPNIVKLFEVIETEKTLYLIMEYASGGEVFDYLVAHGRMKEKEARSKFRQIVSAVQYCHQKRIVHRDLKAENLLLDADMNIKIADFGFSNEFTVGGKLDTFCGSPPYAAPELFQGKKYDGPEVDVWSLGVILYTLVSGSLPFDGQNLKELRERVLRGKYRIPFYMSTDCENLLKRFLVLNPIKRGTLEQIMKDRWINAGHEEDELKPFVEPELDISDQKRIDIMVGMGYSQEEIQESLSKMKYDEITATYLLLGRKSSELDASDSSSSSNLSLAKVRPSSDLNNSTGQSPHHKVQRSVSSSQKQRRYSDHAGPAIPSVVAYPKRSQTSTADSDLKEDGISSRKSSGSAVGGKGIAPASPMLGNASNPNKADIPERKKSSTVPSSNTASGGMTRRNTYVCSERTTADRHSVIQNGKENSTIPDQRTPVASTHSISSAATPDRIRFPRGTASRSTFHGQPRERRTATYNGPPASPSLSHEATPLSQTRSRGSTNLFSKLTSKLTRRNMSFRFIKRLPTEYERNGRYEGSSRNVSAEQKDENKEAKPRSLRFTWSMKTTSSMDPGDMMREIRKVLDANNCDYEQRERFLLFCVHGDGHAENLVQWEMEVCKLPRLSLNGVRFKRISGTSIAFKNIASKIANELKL
Ribosomal protein S6 kinase alpha-3, sequence (P51812 whole entry): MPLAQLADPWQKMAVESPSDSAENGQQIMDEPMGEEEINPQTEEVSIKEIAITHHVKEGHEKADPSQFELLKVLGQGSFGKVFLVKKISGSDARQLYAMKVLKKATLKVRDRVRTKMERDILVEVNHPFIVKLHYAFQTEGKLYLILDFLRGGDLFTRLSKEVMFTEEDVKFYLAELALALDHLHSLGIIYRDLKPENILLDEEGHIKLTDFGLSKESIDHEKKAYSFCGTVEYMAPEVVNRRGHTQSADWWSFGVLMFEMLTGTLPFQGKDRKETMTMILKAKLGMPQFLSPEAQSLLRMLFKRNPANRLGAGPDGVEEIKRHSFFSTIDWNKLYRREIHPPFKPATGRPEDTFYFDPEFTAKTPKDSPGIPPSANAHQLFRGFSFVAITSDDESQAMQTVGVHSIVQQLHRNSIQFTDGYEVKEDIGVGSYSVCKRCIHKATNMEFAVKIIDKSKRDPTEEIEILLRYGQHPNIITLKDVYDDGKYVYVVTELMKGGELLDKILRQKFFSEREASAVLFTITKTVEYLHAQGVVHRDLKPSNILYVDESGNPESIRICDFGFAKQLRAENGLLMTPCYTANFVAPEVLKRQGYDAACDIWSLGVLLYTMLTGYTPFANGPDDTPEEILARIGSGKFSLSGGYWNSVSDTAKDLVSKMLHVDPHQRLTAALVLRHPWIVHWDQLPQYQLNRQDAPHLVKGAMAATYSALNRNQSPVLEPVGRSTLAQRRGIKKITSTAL
Dual specificity tyrosine-phosphorylation-regulated kinase 4, sequence (Q9NR20 whole entry): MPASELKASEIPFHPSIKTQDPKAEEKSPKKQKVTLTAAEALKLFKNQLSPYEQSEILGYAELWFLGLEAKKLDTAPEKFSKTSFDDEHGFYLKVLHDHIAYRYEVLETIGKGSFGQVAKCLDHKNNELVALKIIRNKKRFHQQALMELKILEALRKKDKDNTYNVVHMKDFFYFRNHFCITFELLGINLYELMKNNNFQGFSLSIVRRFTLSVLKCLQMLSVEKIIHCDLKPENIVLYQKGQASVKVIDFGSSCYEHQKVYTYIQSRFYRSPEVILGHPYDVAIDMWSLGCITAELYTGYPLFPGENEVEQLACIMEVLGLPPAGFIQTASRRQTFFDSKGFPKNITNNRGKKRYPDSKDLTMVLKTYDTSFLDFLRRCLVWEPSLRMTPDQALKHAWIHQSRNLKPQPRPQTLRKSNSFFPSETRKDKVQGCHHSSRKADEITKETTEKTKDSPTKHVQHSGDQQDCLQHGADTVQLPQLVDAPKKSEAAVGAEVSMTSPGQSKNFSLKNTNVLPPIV
Calcium/calmodulin-dependent protein kinase type II subunit delta, sequence (Q13557 whole entry): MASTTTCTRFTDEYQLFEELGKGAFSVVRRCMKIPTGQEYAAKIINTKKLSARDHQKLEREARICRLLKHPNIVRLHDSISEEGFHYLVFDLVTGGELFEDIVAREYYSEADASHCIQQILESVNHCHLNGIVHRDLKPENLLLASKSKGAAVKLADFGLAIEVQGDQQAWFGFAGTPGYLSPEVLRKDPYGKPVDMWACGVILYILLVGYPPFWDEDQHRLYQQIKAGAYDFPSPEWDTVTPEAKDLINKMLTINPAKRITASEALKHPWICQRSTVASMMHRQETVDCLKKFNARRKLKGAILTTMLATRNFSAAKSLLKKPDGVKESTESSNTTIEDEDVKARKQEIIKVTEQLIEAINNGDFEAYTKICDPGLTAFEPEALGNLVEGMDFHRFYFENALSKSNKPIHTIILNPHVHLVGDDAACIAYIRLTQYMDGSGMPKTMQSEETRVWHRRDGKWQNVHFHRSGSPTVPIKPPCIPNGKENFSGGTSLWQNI
SRSF protein kinase 1, sequence (Q96SB4 whole entry): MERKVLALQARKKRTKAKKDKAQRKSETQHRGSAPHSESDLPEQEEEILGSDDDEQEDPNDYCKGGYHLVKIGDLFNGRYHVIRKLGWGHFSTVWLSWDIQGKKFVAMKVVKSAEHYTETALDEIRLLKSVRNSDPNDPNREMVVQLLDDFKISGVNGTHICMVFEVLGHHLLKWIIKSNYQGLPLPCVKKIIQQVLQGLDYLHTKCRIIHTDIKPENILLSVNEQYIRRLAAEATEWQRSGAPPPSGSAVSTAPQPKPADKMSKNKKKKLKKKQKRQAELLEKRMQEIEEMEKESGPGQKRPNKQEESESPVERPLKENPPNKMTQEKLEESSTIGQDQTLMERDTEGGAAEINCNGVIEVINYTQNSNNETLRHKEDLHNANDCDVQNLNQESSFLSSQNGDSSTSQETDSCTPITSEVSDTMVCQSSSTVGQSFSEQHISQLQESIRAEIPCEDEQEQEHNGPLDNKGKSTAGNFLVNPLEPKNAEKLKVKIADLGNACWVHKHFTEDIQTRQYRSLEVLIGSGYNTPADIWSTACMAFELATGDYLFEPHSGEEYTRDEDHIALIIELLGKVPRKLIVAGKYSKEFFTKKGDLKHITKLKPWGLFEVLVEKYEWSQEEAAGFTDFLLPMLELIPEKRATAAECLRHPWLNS
Cyclin-dependent kinase 5, sequence (Q00535 whole entry): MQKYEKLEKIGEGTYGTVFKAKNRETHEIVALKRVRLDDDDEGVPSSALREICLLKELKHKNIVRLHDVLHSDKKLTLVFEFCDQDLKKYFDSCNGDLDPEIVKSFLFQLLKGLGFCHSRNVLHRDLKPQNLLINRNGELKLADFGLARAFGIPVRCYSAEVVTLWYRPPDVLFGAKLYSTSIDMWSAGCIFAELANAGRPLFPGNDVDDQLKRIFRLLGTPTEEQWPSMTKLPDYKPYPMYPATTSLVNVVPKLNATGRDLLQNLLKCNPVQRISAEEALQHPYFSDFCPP

- Ki [1]: 3980 nM (active)
- Ki [2]: 3160 nM (active)
- Ki [3]: 39.8 nM (active)
- Ki [4]: > 2000 nM (inactive)
- Ki [5]: 501 nM (active)
- Ki [6]: 501 nM (active)
- Ki [7]: 1000 nM (active)
- Ki [8]: > 631 nM (inactive)
- Ki [9]: 251 nM (active)
- Ki [10]: > 2510 nM (inactive)
- Ki [11]: 794 nM (active)
- Ki [12]: 3160 nM (active)
- Ki [13]: 1260 nM (active)
- Ki [14]: 794 nM (active)
- Ki [15]: > 5010 nM (inactive)
- Ki [16]: > 2000 nM (inactive)
- Ki [17]: 316 nM (active)
- Ki [18]: 50.1 nM (active)
- Ki [19]: > 2000 nM (inactive)
- Ki [20]: 316 nM (active)
- Ki [22]: 200 nM (active)
- Ki [23]: > 2000 nM (inactive)
- Ki [24]: 158 nM (active)
- Ki [25]: > 1580 nM (inactive)
- Ki [26]: 100 nM (active)
- Ki [27]: 10 nM (active)
- Ki [28]: > 1580 nM (inactive)
- Ki [29]: 158 nM (active)
- Ki [30]: > 7940 nM (inactive)
- Ki [31]: 1260 nM (active)
- Ki [32]: 100 nM (active)
- Ki [33]: 158 nM (active)
- Ki [34]: 3160 nM (active)
- Ki [35]: 251 nM (active)
- Ki [36]: 501 nM (active)
- Ki [37]: 501 nM (active)
- Ki [38]: 100 nM (active)
- Ki [39]: 79.4 nM (active)
- Ki [40]: > 1260 nM (inactive)
- Ki [41]: > 5010 nM (inactive)
- Ki [42]: 7.94 nM (active)
- Ki [43]: 126 nM (active)
- Ki [44]: 6.31 nM (active)
- Ki [45]: 3160 nM (active)
- Ki [46]: 5.01 nM (active)
- Ki [47]: 1580 nM (active)
SMILES: NC1CCCCC1Nc1nccc(-c2c[nH]c3ncccc23)n1 (configuration not stated)
- Ki [21]: 631 nM (active)
